Results from ChEMBL document CHEMBL4831479, “Discovery of Novel Thiophene-arylamide Derivatives as DprE1 Inhibitors with Potent Antimycobacterial Activities” (J Med Chem, 2021).
≈ marks a conversion by molar mass, not a printed value.

How the values were obtained:
[1] = system: Mycobacterium tuberculosis; assay: Non-covalent inhibition of DprE1 in PBTZ169-resistant Mycobacterium tuberculosis measured after 7 days by microplate Alamar blue assay; settings: time 7.0 day
[2] = system: Mycobacterium tuberculosis; assay: Non-covalent inhibition of DprE1 in bedaquiline-resistant Mycobacterium tuberculosis measured after 7 days by microplate Alamar blue assay; settings: time 7.0 day

Row | Structure (SMILES) | MIC [1] [µg/mL] | MIC [2] [µg/mL]
1 | COC(=O)NC(=O)c1ccsc1NC(=O)c1ccc(C(=O)N2CCCCC2)cc1 | 0.48 (≈ 1.16 µM) | 
2 | CCOC(=O)NC(=O)c1ccsc1NC(=O)c1ccc(C(=O)N2CCCCC2)cc1 | 0.14 (≈ 0.326 µM) | 
3 | CCOC(=O)NC(=O)c1ccsc1NC(=O)c1ccc(C(=O)N2CCCCC2)c(F)c1 | 0.062 (≈ 0.139 µM) | 0.054 (≈ 0.121 µM)
